Several values for one entry are separate records, joined by “and”; a condition that tells them apart may be missing. Identical values can stand only once.
Assays:
A. baumannii 5075 [1] = assay: Checkerboard assay; type: cell-based
Description: To carry out the serial dilution from the highest compound concentration, a 150 μ L solution of higher concentration compound or antibiotic was mixed with 150 μ L of cell suspension containing […] Th e 96 well plate was in cubated for 20 hat 35 °C with continuous orbital shaking (205 cpm) in an Epoch2 microplate reader (BioTek), monitoring the growth by following the OD600. […] All assays were p erfo rmed in three biological replicates, each with three […] replicates. Checkerboard Assay. […] CFU/mL. […] in the vertical and hori zontal direction, respectivel y. Bacterial suspensions were […] escrib ed above fo r the MIC determination and added to the plates. […] The 96-well […] cubated for 20 h at 35 °C with continuous orbital shaking (205 cpm) in an Epoch2 microplate reader (BioTek), monitoring the growth by following the OD600. The MIC values of inhibitor and antibiotic were obtained from the corresponding row or column which contained only one component, whereas the remaining rows and columns were utilized for calculating the fractional inhibitory concentration index (FIC) with the aid of equation […] = […]2 Time Kill Assays. Time-kill assays were performed with A. baumannii 507 5 by the broth macro- dilution method […] An overnight culture was diluted to approximately 5 x10^5 CFU/mL in fresh […] media. […] DMSO, or by the addition of antibiotic dissolved in water and a small volume of DMSO to produce the desired S7

A. baumannii 5075 [2] = assay: Time kill assays; type: cell-based; settings: for rate of killing: each agent at its MIC
Description: dissolved in DMSO, such that the resultant solution had the highest concentration of compound or antibiotic tested and 1.5% DMSO. To carry out the serial dilution from the highest compound concentration, a 150 μ L solution of higher concentration compound or antibiotic was mixed with 150 μ L of cell suspension containing 1.5% DMSO in the wells of a 96 well plate.
Th e 96 well plate was in cubated for 20 hat 35 °C with continuous orbital shaking (205 cpm) in an Epoch2 microplate reader (BioTek), monitoring the growth by […]
following the OD600. […]
Time Kill Assays. Time-kill assays were performed with A. baumannii 507 5 by the broth macro- dilution method in M63- medium containing 1.5% DMSO. An overnight culture was diluted to approximately 5 x10^5 CFU/mL in fresh M63 media. The test solutions were prepared by adding compound (KM-5- 35, or KM-5- 25) dissolved in DMSO to 5 mL of diluted cell suspension to yield a solution of the desired compound concentration and 1.5% DMSO, or by the addition of antibiotic dissolved in water and a small volume of DMSO to produce the desired […]
antibiotic concentration and 1.5% DMSO. Controls containing the diluted cell suspension, 1.5% DMSO but no test compounds were also prepared. […]
800 µL of the suspension was lay ered onto 700 µL of chilled silicon oil contained in 1.5 mL Eppendo rf tubes and then centrifuged at 4 °C ( 900 x g) for 10 min, then again at 16,200 x g for 5 min to allow pass ag e of the cell suspension through the silicon oil layer. The aqueous and oil layers were removed, and the cell pellet was washed twice in PBS (800 μ L), each time transferring the cell suspension to a new Eppendorf tube and then centrifuging at 16,200 x g. The cell pellet was lysed in 800 µL methanol by vortexing followed by 10 min incubationat room temperatur e. The lysate suspension was pelleted, the supernatant was transferred to a new Eppendorf tube and then placed into a vacuum concentrator (Eppendorf 5301 Vacufuge) to evaporate the methanol (4 h). The dried

O=C1NC(=O)c2c(NCc3cc(Br)ccc3O)cccc21 [KM-5-35, 4-((5-Bromo-2-hydroxybenzyl)amino)isoindoline-1,3-dione]
FIC (A. baumannii 5075 [1]; KM-5–35 with ceftazidime, 5075): 0.50
FIC (A. baumannii 5075 [1]; KM-5–35 with ciprofloxacin, 5075): 0.53
FIC (A. baumannii 5075 [1]; KM-5–35 with meropenem, 5075): 0.50
FIC (A. baumannii 5075 [1]; KM-5–35 with tobramycin, 5075): 0.50
MIC alone (A. baumannii 5075 [1]; agent alone, 5075, KM-5–35 14 μg/mL = 40 μM): 14 µg/mL
MIC of KM-5–35 in combination (A. baumannii 5075 [1]; in combination with ceftazidime, 5075): 7 µg/mL
MIC of KM-5–35 in combination (A. baumannii 5075 [1]; in combination with ciprofloxacin, 5075): 7 µg/mL
MIC of KM-5–35 in combination (A. baumannii 5075 [1]; in combination with imipenem, 5075): 3.5 µg/mL
MIC of KM-5–35 in combination (A. baumannii 5075 [1]; in combination with tobramycin, 5075): 7 µg/mL
time kill outcome (A. baumannii 5075 [2]; compound at 1 × MIC): bactericidal
reduction of viable cells (CFU/mL) relative to the inoculum (A. baumannii 5075 [2]; compound at the MIC): > 3 log10
rate of killing (A. baumannii 5075 [2]): faster than meropenem but slower than colistin

O=C1NC(=O)c2c(NCc3cc(Cl)ccc3O)cccc21 [KM-5-25, 4-((5-Chloro-2-hydroxybenzyl)amino)isoindoline-1,3-dione]
FIC (A. baumannii 5075 [1]; KM-5–25 with colistin, 5075 (Figure S3)): 0.36 and 0.38
FIC (A. baumannii 5075 [1]; KM-5–25 with imipenem, 5075 (Figure S3)): 0.63
time kill outcome (A. baumannii 5075 [2]; compound at 1 × MIC): cell growth is observed at later hours
time kill outcome (A. baumannii 5075 [2]; compound at 1.5 × MIC (limit of aqueous solubility)): bactericidal
reduction of viable cells (CFU/mL) relative to the inoculum (A. baumannii 5075 [2]; compound at the MIC): approximately 3 log10
time to approximately 3log10 reduction of viable cells (A. baumannii 5075 [2]; compound at the MIC): approximately 3 h
rate of killing (A. baumannii 5075 [2]): slower than that observed with KM-5–35
